Each structure is given as a SMILES string. A value given as a limit tells only on which side of the number the result lay.

One assay deals with T1, CDK4/cyclin D3 (Homo sapiens, UniProt P11802).
T1 construct: purchased Carna Biosciences, Inc. QS S Assist CDK4/Cyclin D3_FP Kit
Briefly: Human CDK4/cyclin D3 inhibitory activity (QS S Assist CDK4/Cyclin D3_FP Kit, IMAP fluorescent polarization). It is filed as biochemical. To be noted: read-out: CDK4 Activity symbol. The protocol: Human CDK4/Cyclin D3 Inhibitory Activity
Each compound was analyzed for CDK4/cyclin D3 inhibitory activity with an assay kit (QS S Assist CDK4/Cyclin D3_FP Kit, available from Carna Biosciences, Inc.). This assay kit determines kinase activity on the basis of the IMAP technology by Molecular Devices. Specifically, the kinase activity is determined through quantification of a variation in fluorescent polarization caused by binding of a kinase-phosphorylated fluorescent substance to an IMAP-binding reagent.
Each solution was prepared with the 10× assay buffer attached to the kit or a separately prepared assay buffer having the same composition as the assay buffer attached to the kit. An assay buffer was prepared by 10-fold dilution of the 10× assay buffer with distilled water. The assay buffer contains 20 mM HEPES (pH 7.4), 0.01% Tween20, and 2 mM dithiothreitol. A test compound solution was prepared by dilution of the test compound with dimethyl sulfoxide (DMSO) to a concentration 100 times higher than the final concentration and then 25-fold dilution with the assay buffer to a concentration four times higher than the final concentration. An ATP/substrate/Metal solution was prepared by five-fold dilution of the 5×ATP/substrate/Metal solution attached to the kit with the assay buffer. An enzyme solution was prepared by dilution of the CDK4/cyclin D3 attached to the kit with the assay buffer to a concentration twice higher than the final concentration (final concentration of CDK4/cyclin D3: 12.5 to 25 ng/well). A detection reagent was prepared by five-fold dilution of each of 5×IMAP-binding buffer A and 5×IMAP-binding buffer B with distilled water, mixing of IMAP-binding buffer A with IMAP-binding buffer B at a ratio of 85:15, and 400-fold dilution of the IMAP-binding reagent with the mixed buffer.
(§1) The test compound solution (5 μL/well) and the ATP/substrate/Metal solution (5 μL/well) were added to a 384-well plate, and the enzyme solution or the assay buffer (10 μL/well) was added to the plate (total amount of the reaction mixture: 20 μL/well) for initiation of enzymatic reaction. […] The reaction was performed at room temperature for 45 minutes, and the detection reagent (60 μL/well) was then added to the plate, followed by further reaction for 30 minutes at room temperature under light shielding conditions. Subsequently, fluorescent polarization was determined with a microplate reader at an excitation wavelength of 485 nm and an emission wavelength of 535 nm.
The percent inhibition of enzyme activity was calculated for each test compound (note: enzyme activity=100% in the case of addition of the enzyme solution and addition of DMSO instead of the test compound solution, whereas enzyme activity […] in the case of addition of the assay buffer instead of the enzyme solution, and addition of DMSO instead of the test compound solution). The percent inhibition of enzyme activity was fitted to a dose-response curve, to determine a 50% inhibitory concentration against CDK4/cyclin D3.
In each table, “+++” corresponds to IC50<10 nM. “++” 10 nM […] IC50<100 nM, and “+” 100 nM≤IC50.

The target of another assay is T2, CDK2/cyclin A2 (Homo sapiens, UniProt P24941).
T2 construct: purchased Carna Biosciences, Inc. QS S Assist CDK2/Cyclin A2_FP Kit
Briefly: Human CDK2/cyclin A2 inhibitory activity (QS S Assist CDK2/Cyclin A2_FP Kit, IMAP fluorescent polarization). To be noted: read-out: CDK2 Activity symbol. It is filed as biochemical. The protocol: Human CDK2/Cyclin A2 Inhibitory Activity
Each compound was analyzed for CDK2/cyclin A2 inhibitory activity with an assay kit (QS S Assist CDK2/Cyclin A2_FP Kit, available from Carna Biosciences, Inc.). This assay kit determines kinase activity on the basis of the IMAP technology by Molecular Devices. Specifically, the kinase activity is determined through quantification of a variation in fluorescent polarization caused by binding of a kinase-phosphorylated fluorescent substance to an IMAP-binding reagent.
An assay buffer was prepared by 10-fold dilution of the 10× assay buffer attached to the kit with distilled water, and each solution was prepared with the assay buffer. The assay buffer contained 20 mM HEPES (pH 7.4), 0.01% Tween 20, and 2 mM dithiothreitol. A test compound solution was prepared by dilution of the test compound with dimethyl sulfoxide (DMSO) to a concentration 100 times higher than the final concentration and then 25-fold dilution with the assay buffer to a concentration four times higher than the final concentration. An ATP/substrate/Metal solution was prepared by five-fold dilution of the 5×ATP/substrate/Metal solution attached to the kit with the assay buffer. An enzyme solution was prepared by dilution of the CDK2/cyclin A2 attached to the kit with the assay buffer to a concentration twice higher than the final concentration (final concentration of CDK2/cyclin A2: 2.5 ng/well). A detection reagent was prepared by five-fold dilution of 5×IMAP-binding buffer A with distilled water and 400-fold dilution of the IMAP-binding reagent with the diluted buffer.
as §1, with “60” for “45”
The percent inhibition of enzyme activity was calculated for each test compound (note: enzyme activity=100% in the case of addition of the enzyme solution and addition of DMSO instead of the test compound solution, whereas enzyme activity […] in the case of addition of the assay buffer instead of the enzyme solution and addition of DMSO instead of the test compound solution). The percent inhibition of enzyme activity was fitted to a dose-response curve, to determine a 50% inhibitory concentration against CDK2/cyclin A2.
In each table, “+++” corresponds to IC50<10 nM, “++” 10 nM≤IC50<100 nM, and “+” 100 nM≤IC50.

T1 sequence (P11802 whole entry): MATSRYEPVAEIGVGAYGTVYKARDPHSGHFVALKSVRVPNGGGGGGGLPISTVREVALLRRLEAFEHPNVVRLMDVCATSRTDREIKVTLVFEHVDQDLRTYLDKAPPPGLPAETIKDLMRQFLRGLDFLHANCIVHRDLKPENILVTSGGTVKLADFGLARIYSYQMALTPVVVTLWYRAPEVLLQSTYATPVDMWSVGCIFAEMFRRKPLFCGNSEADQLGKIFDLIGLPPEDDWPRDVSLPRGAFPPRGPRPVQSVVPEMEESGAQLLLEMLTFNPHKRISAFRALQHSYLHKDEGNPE
T1 sequence (P30281 whole entry partner): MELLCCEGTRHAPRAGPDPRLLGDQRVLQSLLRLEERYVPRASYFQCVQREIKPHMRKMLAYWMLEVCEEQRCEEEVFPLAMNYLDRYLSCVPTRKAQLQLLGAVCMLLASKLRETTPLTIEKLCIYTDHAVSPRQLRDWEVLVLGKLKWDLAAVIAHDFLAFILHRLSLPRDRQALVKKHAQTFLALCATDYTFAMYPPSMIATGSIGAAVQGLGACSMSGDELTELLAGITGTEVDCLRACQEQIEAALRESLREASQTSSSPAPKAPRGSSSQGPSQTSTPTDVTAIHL

Consider `C[C@@H](O)c1cc2cnc(Nc3ccc(CN4CCN(CCO)CC4)cn3)nc2c(N2CCC(C(=O)O)CC2)n1` [Compound 76], for which the results for the IC50 at CDK4/cyclin D3 and on CDK2/cyclin A2 were under 0.01 µM and at least 0.1 µM, respectively.
In the case of `C[C@@H](O)c1cc2cnc(Nc3ccc(CN4CCN(CCO)CC4)cn3)nc2c(N2CCN(C)CC2)n1` [Compound 77], the IC50 on CDK4/cyclin D3 was 0.01 to 0.1 µM; at CDK2/cyclin A2, at least 0.1 µM.
`C[C@@H](O)c1cc2cnc(Nc3ccc(CN4CCN(CCO)CC4)cn3)nc2c(N2CCC(F)CC2)n1` [Compound 78]: the IC50 is under 0.01 µM on CDK4/cyclin D3 and at least 0.1 µM at CDK2/cyclin A2.
Consider `C[C@@H](O)c1cc2cnc(Nc3ccc(CN4CCN(CCO)CC4)cn3)nc2c(N2CCC(F)(F)CC2)n1` [Compound 79], for which the values for the IC50 on CDK4/cyclin D3 and at CDK2/cyclin A2 were under 0.01 µM and at least 0.1 µM, respectively.
The like results for `C[C@@H](O)c1cc2cnc(Nc3ccc4c(n3)CCNC4)nc2c(N2CCC(F)(F)CC2)n1` [Compound 80] were, in that order, under 0.01 µM and at least 0.1 µM.
For `C[C@@H](O)c1cc2cnc(Nc3ccc4c(n3)CCN(CCO)C4)nc2c(N2CCC(F)(F)CC2)n1` [Compound 81], the IC50 at CDK4/cyclin D3 was under 0.01 µM; on CDK2/cyclin A2, at least 0.1 µM.
For `C[C@@H](O)c1cc2cnc(Nc3ccc4c(n3)CCN(CCN(C)C)C4)nc2c(N2CCC(F)(F)CC2)n1` [Compound 82], the results for the IC50 at CDK4/cyclin D3 and on CDK2/cyclin A2 were under 0.01 µM and at least 0.1 µM, respectively.
The like results for `CC(O)c1cc2cnc(Nc3ccc(CN4CCN(CCO)CC4)cn3)nc2c(N2CCCC2C)n1` (centres unmarked) [Compound 83] were, in that order, under 0.01 µM and 0.01 to 0.1 µM.
The like results for `C[C@@H](O)c1cc2cnc(Nc3ccc(CN4CCN(CCO)CC4)cn3)nc2c(N2CCC(C(F)(F)F)CC2)n1` [Compound 84] were, in that order, under 0.01 µM and at least 0.1 µM.
For `C[C@@H](O)c1cc2cnc(Nc3ccc(CN4CCN(CCO)CC4)cn3)nc2c(N2CCS(=O)(=O)CC2)n1` [Compound 85], the IC50 at CDK4/cyclin D3 is 0.01 to 0.1 µM; at CDK2/cyclin A2, at least 0.1 µM.
As to `Cc1nc(Nc2ncc3cc([C@@H](C)O)nc(N4CCCC4)c3n2)ccc1N1CCNCC1` [Compound 86], the IC50 on CDK4/cyclin D3 is under 0.01 µM; on CDK2/cyclin A2 it was at least 0.1 µM.
For `Cc1nc(Nc2ncc3cc([C@@H](C)O)nc(N4CCCCC4)c3n2)ccc1N1CCNCC1` [Compound 87], the IC50 at CDK4/cyclin D3 was under 0.01 µM; on CDK2/cyclin A2 it was at least 0.1 µM.
Take `Cc1nc(Nc2ncc3cc([C@@H](C)O)nc(N4CCCCC4)c3n2)ccc1N1CCN(CCO)CC1` [Compound 88]: the IC50 at CDK4/cyclin D3 was under 0.01 µM; at CDK2/cyclin A2, at least 0.1 µM.
Regarding `C[C@@H](O)c1cc2cnc(Nc3ccc(N4CCNCCC4=O)cn3)nc2c(N2CCCCC2)n1` [Compound 89], the IC50 at CDK4/cyclin D3 is under 0.01 µM; at CDK2/cyclin A2, at least 0.1 µM.
Turning to `C[C@@H](O)c1cc2cnc(Nc3ccc(N4CCNCC4=O)cn3)nc2c(N2CCC(F)CC2)n1` [Compound 90], the IC50 is under 0.01 µM at CDK4/cyclin D3 and at least 0.1 µM at CDK2/cyclin A2.
The like results for `C[C@@H](O)c1cc2cnc(Nc3ccc(N4CCNCC4)nn3)nc2c(N2CCCCC2)n1` [Compound 91] were, in that order, under 0.01 µM and at least 0.1 µM.
Regarding `OCCc1cc2cnc(Nc3ccc(CN4CCNCC4)cn3)nc2c(N2CCCCC2)n1` [Compound 92], the values for the IC50 at CDK4/cyclin D3 and on CDK2/cyclin A2 were under 0.01 µM and at least 0.1 µM, respectively.
The like results for `O=C1CNCCN1c1ccc(Nc2ncc3cc(CCO)nc(N4CCCCC4)c3n2)nc1` [Compound 93] were, in that order, under 0.01 µM and at least 0.1 µM.
For `OCCc1cc2cnc(Nc3ccc(N4CCNCC4)nn3)nc2c(N2CCCCC2)n1` [Compound 94], the IC50 at CDK4/cyclin D3 is under 0.01 µM; on CDK2/cyclin A2, at least 0.1 µM.
`OCCc1cc2cnc(Nc3ccc4c(n3)CCNC4)nc2c(N2CCCCC2)n1` [Compound 95]: the IC50 at CDK4/cyclin D3 was 0.01 to 0.1 µM; on CDK2/cyclin A2, at least 0.1 µM.
On to `OCCN1CCN(Cc2ccc(Nc3ncc4cc(CO)nc(N5CCCCC5)c4n3)nc2)CC1` [Compound 96], for which the IC50 at CDK4/cyclin D3 is under 0.01 µM; at CDK2/cyclin A2, at least 0.1 µM.
As to `O=C1CNCCN1c1ccc(Nc2ncc3cc(CO)nc(N4CCCCC4)c3n2)nc1` [Compound 97], the IC50 on CDK4/cyclin D3 is under 0.01 µM; on CDK2/cyclin A2, at least 0.1 µM.
The like results for `C[C@@H](O)c1cc2cnc(Nc3ccc(CN4CCN(CCO)CC4)cn3)nc2c(N2CCC[C@@H]2C)n1` [Compound 98] were, in that order, 0.01 to 0.1 µM and at least 0.1 µM.
Regarding `C[C@H]1CCN(c2nc([C@@H](C)O)cc3cnc(Nc4ccc(CN5CCN(CCO)CC5)cn4)nc23)C1` [Compound 99], the results for the IC50 on CDK4/cyclin D3 and at CDK2/cyclin A2 were under 0.01 µM and at least 0.1 µM, respectively.
Consider `C[C@@H]1CCN(c2nc([C@@H](C)O)cc3cnc(Nc4ccc(CN5CCN(CCO)CC5)cn4)nc23)C1` [Compound 100], for which the figures for the IC50 on CDK4/cyclin D3 and at CDK2/cyclin A2 were under 0.01 µM and at least 0.1 µM, respectively.
For `CC1CCC(C)N1c1nc([C@@H](C)O)cc2cnc(Nc3ccc(CN4CCN(CCO)CC4)cn3)nc12` (some centres unmarked) [Compound 101], the IC50 was under 0.01 µM at CDK4/cyclin D3 and at least 0.1 µM at CDK2/cyclin A2.
The like results for `C[C@@H](O)c1cc2cnc(Nc3ccc(CN4CCN(CCO)CC4)cn3)nc2c(N2CCC(C)(C)C2)n1` [Compound 102] were, in that order, under 0.01 µM and at least 0.1 µM.
As for `C[C@@H](O)c1cc2cnc(Nc3ccc(CN4CCN(CCO)CC4)cn3)nc2c(N2C3CCC2CC3)n1` [Compound 103], the IC50 on CDK4/cyclin D3 was under 0.01 µM; at CDK2/cyclin A2, at least 0.1 µM.
Regarding `C[C@@H](O)c1cc2cnc(Nc3ccc(CN4CCN(CCO)CC4)cn3)nc2c(N2CC3CC3C2)n1` (some centres unmarked) [Compound 104], the values for the IC50 on CDK4/cyclin D3 and at CDK2/cyclin A2 were under 0.01 µM and at least 0.1 µM, respectively.
Regarding `CC(O)c1cc2cnc(Nc3ccc(CN4CCN(CCO)CC4)cn3)nc2c(N2C3CCCC2CC3)n1` (centres unmarked) [Compound 105], the IC50 on CDK4/cyclin D3 was under 0.01 µM; on CDK2/cyclin A2 it was at least 0.1 µM.
Turning to `C[C@@H](O)c1cc2cnc(Nc3ccc(CN4CCN(CCO)CC4)cn3)nc2c(N2CCC(O)CC2)n1` [Compound 106], the IC50 on CDK4/cyclin D3 was under 0.01 µM; on CDK2/cyclin A2, at least 0.1 µM.
Consider `OCc1cc2cnc(Nc3ccc(N4CCNCC4)nn3)nc2c(N2CCCCC2)n1` [Compound 107], for which the IC50 at CDK4/cyclin D3 is under 0.01 µM; on CDK2/cyclin A2, at least 0.1 µM.
The like results for `OCc1cc2cnc(Nc3ccc(CN4CCNCC4)cn3)nc2c(N2CCCCC2)n1` [Compound 108] were, in that order, under 0.01 µM and at least 0.1 µM.
Consider `OCCc1cc2cnc(Nc3ccc4c(n3)CCN(CCO)C4)nc2c(N2CCCCC2)n1` [Compound 109], for which the IC50 was under 0.01 µM at CDK4/cyclin D3 and at least 0.1 µM on CDK2/cyclin A2.

For the origin of these results see patent US11084814B2, “Pyrido[3, 4-d]pyrimidine derivative and pharmaceutically acceptable salt thereof” (Teijin Pharma Limited, priority 2016, dated 2021).
